Measured values from publication PMC7703437, “In Vitro Hepatic Metabolism of Curcumin Diethyl Disuccinate by Liver S9 from Different Animal Species” (Frontiers in Pharmacology, 2020).
“And” between values parts separate entries of the source, which are not always exact repeats. Equal values may be shown once.

Columns and labels:
MLS9 = experiment: CDD depletion in MLS9 0.02 mg/ml (optimisation of incubation condition); type: in vitro ADME, monkey; details: CDD 3 μM
Protocol: The metabolism profiles of CDD and curcumin formation profile were investigated against HLS9, MLS9, DLS9 and RLS9. A stock solution of CDD was prepared at 150 µM in 50% acetonitrile in water before use. The metabolism study was initiated by spiking a 588 µl pre-incubated LS9 with 12 µl CDD stock solution, and subsequently incubated at 37°C. The final concentrations of CDD and LS9 were 3 µM and 0.02 mg/ml, respectively. A 50 µl aliquot from the mixture was collected at 0.5, 1, 2, 3, 4, 5, 10, 15, 30, 45 and 60 min and was immediately mixed with 100 µl of ice-cold acetonitrile containing 0.45 µM of internal standard DMC to terminate the metabolic reaction. […] Samples of 120 µl of supernatant wee diluted with 40 µl of water prior to UHPLC analysis (Agilent series 1290, Agilent Technology, USA) by means of protocol outlined in Materials and Methods:“In vitro Metabolism Profiling of Curcumin Diethyl Disuccinate”. The sample at 0 min was prepared as other samples except that heat-inactivated HLS9, MLS9, DLS9 and RLS9 (80°C for 20 min; 1 mg/ml protein) were used. Duplicates were conducted for each experiment.
The peak area ratios of CDD and curcumin to internal standard in the supernatant were determined. The percent contents of CDD and curcumin were plotted against incubation time. The depletion of CDD was calculated with reference to the initial concentration. The saturated substrate was defined as % depletion less than 30.

[1] = In vitro metabolism profiling of CDD in rat liver S9 (1 mg/ml); type: in vitro ADME, rat (Sprague–Dawley); details: Sprague-Dawley, liver S9; rat LS9 1 mg/ml; read-out: t 1/2 (CDD)
Protocol: (§1) The metabolism profiles of CDD were investigated against HLS9, MLS9, DLS9, and RLS9. A stock solution of CDD was prepared at 150 µM in 50% acetonitrile in water before use. The metabolism study was initiated by spiking 735 µl of preincubated LS9 with 15 µl of CDD stock solution, and the mixture was subsequently incubated at 37°C. The final concentrations of CDD and LS9 were 3 μM and 1 mg/ml, respectively. A 50-µl aliquot from the mixture was collected at 0.5, 1, 2, 3, 4, 5, 10, 15, 30, 45, 60, 90, and 120 min and immediately mixed with 100 µl of ice-cold acetonitrile containing 0.45 µM of internal standard DMC to terminate the metabolic reaction. […] The sample at the initial time point (0 min) was prepared as the other samples, except that heat-inactivated HLS9, MLS9, DLS9, and RLS9 (80°C for 20 min; 1 mg/ml protein) were used.
(§2) The UHPLC system consisted of an Agilent series 1290 quaternary pump with an online degasser, autosampler, column oven, and diode array detector. The mobile phase was composed of (A) 0.1% (v/v) formic acid in acetonitrile and (B) 0.1% (v/v) formic acid in water. Each solution was filtered through a nylon filter (pore size, 0.22 µm; MS® Membrane Filters; Membrane Solutions, United States) before use. The mobile phase flow rate was kept at 1.2 ml/min in a gradient mode using the following elution program: 0–3.0 min, initial A-B (40:60, v/v); 4.5–7.0 min, isocratic elution A-B [50:50, (v/v); 8.5–11.0 min, isocratic elution A-B (60:40, v/v); and 12.0–17.0 min, isocratic elution A-B (40:60, v/v)]. CDD, curcumin, and MSCUR in the supernatant were partitioned using a C8 column (4.6 mm × 50 mm, 2.7 µm; HALO, Advanced Materials Technology, United States) with reference to DMC. The detection wavelength was set at 400 nm (λ max(CDD) = 400 nm, λ max(curcumin) = 427 nm, λ max(MSCUR) = 418 nm, and λ max(DMC) = 421 nm). The column was maintained at 35°C throughout the run, and the supernatant injection volume was set at 20 µl.
(§3) The concentrations of CDD, curcumin, and MSCUR in the supernatant were determined from the standard plots, which were prepared by spiking individual working solutions of the compounds to heat-inactivated HLS9, MLS9, DLS9, and RLS9 ([Alcorn et al., 2007]; [Montoro-Garcia et al., 2009]; [Singh et al., 2010]). These working standards were extracted with 100 µl of ice-cold acetonitrile containing 0.45 µM of DMC and then 120 μl of the supernatant was diluted with 40 μl of water prior to the UHPLC analysis. The peak area ratios of CDD, curcumin, and MSCUR to the internal standard were computed against linear concentration ranges of 0.025–4.5 µM CDD, 0.025–4.5 µM curcumin, and 0.0125–0.75 µM MSCUR, respectively, with the coefficient of determination (r^2) values greater than 0.99.
(§4) The percent content of CDD and the metabolites formed upon its incubation with LS9, namely, curcumin and MSCUR, was plotted against incubation time.
(§5) The following equations were adopted to describe the changes in CDD and MSCUR content over time (t): A = A0e^−k1t (2) B= k1A0/k2−k1(e^−k1t−e^−k2t), (3) where A0 is the CDD concentration at time 0, k 1 is the degradation rate constant of CDD, and k 2 is the degradation rate constant of MSCUR. k 1 and k 2 were determined by using Eqs. 2 and 3, respectively, with nonlinear regression analysis using the SOLVER function of Microsoft Excel for Office 365 MSO (16.0.12527.20986) ([Brown, 2001]). The half-life (t 1/2) was calculated using Eq. 4: t1/2=0.693/k (4)
(§6) The in vitro intrinsic clearance (CLint,in vitro) of CDD and MSCUR in LS9 was calculated using Eq. 5: CLint, in vitro= k × [V]incubation(ml)/[P]incubation(mg protein), (5) where [V]incubation is the incubation volume in ml, and [P]incubation is the amount of LS9. […]

[2] = test system: rat LS9 (RLS9; Sprague–Dawley); experiment: as above; type: in vitro ADME
Protocol: as §1, §2, §3, §4, §5, §6

[3] = In vitro metabolism profiling of CDD in monkey liver S9 (1 mg/ml); type: in vitro ADME, monkey (cynomolgus); details: liver S9; monkey LS9 1 mg/ml; read-out: t 1/2 (CDD)
Protocol: as §1, §2, §3, §4, §5, §6

[4] = test system: monkey LS9 (MLS9; cynomolgus); experiment: as above; type: in vitro ADME
Protocol: as §1, §2, §3, §4, §5, §6

% CDD remaining (MLS9; 0.5 min): 75.32%
%Depletion of CDD (MLS9; 0.5 min (selected incubation time)): 25% and 24.68%
% CDD remaining (MLS9; 1 min): 63.90%
%Depletion of CDD (MLS9; 1 min): 36.10%
% CDD remaining (MLS9; 2 min): 49.34%
%Depletion of CDD (MLS9; 2 min): 50.66%
% CDD remaining (MLS9; 3 min): 37.51%
%Depletion of CDD (MLS9; 3 min): 62.49%
% CDD remaining (MLS9; 4 min): 28.36%
%Depletion of CDD (MLS9; 4 min): 71.64%
% CDD remaining (MLS9; 5 min): 21.92%
%Depletion of CDD (MLS9; 5 min): 78.08%
half-life at 3 µM [1]: 62.4 ± 10.8 s
CLint, in vitro(CDD) ([2]; rat LS9): 0.68 ± 0.13 ml min^−1 mg protein^−1
k 1 (CDD) ([2]; rat LS9 1 mg/ml, CDD 3 µM, 37°C): 0.68 ± 0.13 min⁻¹
CLint, in vivo(CDD) ([2]; rat, scaled from CLint,in vitro with physiologically based scaling factors): 197.51 ± 37.52 L/h/kg
CLint, in vivo total ([2]; rat, sum of CLint,in vivo(CDD) and CLint,in vivo(MSCUR)): 3,002.88 ± 180.63 L h^−1 kg^−1
CLH (predicted hepatic clearance) ([2]; rat, well-stirred model, QH 70 ml min^−1 kg^−1, fup 0.0594): 4.10 ± 5.77 × 10^–3 L h^−1 kg^−1
half-life at 3 µM [3]: 52.2 ± 7.8 s
CLint, in vitro(CDD) ([4]; monkey LS9): 0.81 ± 0.13 ml min^−1 mg protein^−1
k 1 (CDD) ([4]; monkey LS9 1 mg/ml, CDD 3 µM, 37°C): 0.81 ± 0.13 min⁻¹
CLint, in vivo(CDD) ([4]; monkey, scaled from CLint,in vitro with physiologically based scaling factors): 176.96 ± 27.49 L/h/kg
CLint, in vivo total ([4]; monkey, sum of CLint,in vivo(CDD) and CLint,in vivo(MSCUR)): 4,704.26 ± 695.64 L h^−1 kg^−1
CLH (predicted hepatic clearance) ([4]; monkey, well-stirred model, QH 44 ml min^−1 kg^−1, fup 0.0594): 2.61 ± 3.87 × 10^–3 L h^−1 kg^−1
Compound: CCOC(=O)CCC(=O)Oc1ccc(/C=C/C(=O)/C=C(O)/C=C/c2ccc(OC(=O)CCC(=O)OCC)c(OC)c2)cc1OC [CDD, curcumin diethyl disuccinate]
